# According to patent US10550143B2, “C,O-spiro aryl glycoside compounds, preparation therefor and use thereof” (SHANGHAI INSTITUTE OF MATERIA MEDICA, CHINESE ACADEMY OF …, priority 2015, dated 2020):
# Marks after values point to notes of the source that are not given here.
# Experiments:
# SD rats [1] = experiment: Acute administration of A28 at multiple doses, urinary glucose of SD rats; format: in vivo, rat; settings: within 24 h
# Procedure: (1) 72 normal male SD rats were selected and randomly divided into 9 groups according to body weight and blood glucose, 8 in each group. […] After oral gavage, the rats were placed in rats metabolic cages, and urine was collected after 24 h, and the urine volume was recorded, then preserved under −20° C. Rats take food and water freely during the experimental period.
# (2) Index Determination: Glucose levels in urine are measured by the glucose assay kit.
# SD rats [2] = experiment: Acute administration of A28 at multiple doses, glucose tolerance of SD rats; format: in vivo, rat; settings: SD rats OGTT; for Blood glucose level 0: before sugar
# Procedure: (1) 80 SD rats were selected and starved overnight, took water freely, then randomly divided into 10 groups according to body weight and random blood glucose, 8 rats in each group. […] 1 h after oral gavage, 3 g/kg of glucose was orally administered to each group except blank control group, and the blood glucose level was monitored before the sugar administration, and at 15, 30, 60, 90 and 120 minutes after the sugar administration.
# Average hypoglycemic rate %=(AUC0-120 min of solvent control group−AUC0-120 min of administration group)/(AUC0-120 min of solvent control group−AUC0-120 min of blank control group)*100%
# db/db mice [3] = experiment: Chronic administration, glycosylated hemoglobin level in db/db mice; format: in vivo, mouse; settings: for HbA1c Decline rate %: vs vehicle
# Procedure: (§1) Oral gavage administrated, daily dose volume was 10 mL/kg, administered once daily. Administration time was 9: 00-10:00 daily, and the administration period was 5 weeks.
# In the end of the above experiment, the orbital blood was taken from animals of each group and divided into two tubes, one was centrifuged to take blood cells for the determination of glycated hemoglobin content, the other tube was added with 25 μL EDTA in advance, centrifuged and the supernatant was taken to determine the indexes such as triglyceride (TG), total cholesterol (TC), total protein (TP), albumin, low density lipoprotein (LDL), high density lipoprotein (HDL), non-esterified fatty acid (NEFA) and so on.
# db/db mice [4] = experiment: Chronic administration, oral glucose tolerance in db/db mice; format: in vivo, mouse; settings: glucose tolerance, chronic administration; for AUC0-2 h reduction rate (%): vs vehicle
# Procedure: as §1
# The glucose tolerance of mice of normal control group, model control group, test substance group and positive control group were determined 3 weeks after administration of drug, oral administrated with 1.5 g/kg of glucose, and taken 2 μL of blood on the tail. 4 μL of normal saline was added to 96 well sharp bottom plate to dilute evenly, and then the blood glucose was measured. The blood glucose levels before the sugar administration and at 15, 30, 60, 90 and 120 min after the sugar administration were measured. The true blood glucose level was calculated and the area under the blood glucose curve within 120 min was calculated by the following formula: AUC0-2h (mmol/L·h)=(BG0+BG15)×0.25/2+(BG15+BG30)×0.25/2+(BG30+BG60)×0.5/2+(BG60+[…])×1.0/2 Note: BG0, BG15, BG30, BG60 and BG120 represent the blood glucose levels before the sugar administration, and at 15, 30, 60, and 120 min after sugar administration, respectively. Average hypoglycemic rate %=(solvent control group AUC0-2h−administration group AUC0-2h)/solvent control group AUC0-2h*100%
# db/db mice [5] = experiment: Chronic administration, glucose-stimulated insulin release in db/db mice; format: in vivo, mouse; settings: glucose-stimulated insulin release, chronic administration
# Procedure: as §1
# The fourth week after administration, the mice were starved for 6 hours after morning administration and were orally administrated with glucose (1.5 g/kg), and blood was collected from the tail (10 μL EDTA+20 μL tail blood). Centrifuged and the supernatant was taken, stored at −20° C. for insulin test.
compound,measurement,setting,value
CCOc1ccc(Cc2cc([C@@H]3O[C@H](CO)[C@@H](O)[C@H](O)[C@H]3O)ccc2Cl)cc1 [Dapa],Total sugar excretion,SD rats [1]; oral 1 mg/kg,706.69 ± 39.98 mg/100 g
same,Urine concentration,SD rats [1]; oral 1 mg/kg,313.13 ± 16.92 mmol/L
same,Urine volume,SD rats [1]; oral 1 mg/kg,31.38 ± 1.99 mL
same,Total sugar excretion,SD rats [1]; oral 3 mg/kg,859.30 ± 41.55 mg/100 g
same,Urine concentration,SD rats [1]; oral 3 mg/kg,327.16 ± 24.63 mmol/L
same,Urine volume,SD rats [1]; oral 3 mg/kg,36.88 ± 1.55 mL
same,AUC0-2 h,SD rats [2]; oral 1 mg/kg,16.6 ± 1.2 mmol·h/L
same,Average hypoglycemic rate % (0-2 h),SD rats [2]; oral 1 mg/kg,35.1%
same,Blood glucose level 15 min,SD rats [2]; oral 1 mg/kg,6.6 ± 0.7 mmol/L
same,Blood glucose level 30 min,SD rats [2]; oral 1 mg/kg,7.8 ± 0.9 mmol/L
same,Blood glucose level 60 min,SD rats [2]; oral 1 mg/kg,9.4 ± 1.1 mmol/L
same,Blood glucose level 90 min,SD rats [2]; oral 1 mg/kg,9.5 ± 1.0 mmol/L
same,Blood glucose level 120 min,SD rats [2]; oral 1 mg/kg,7.9 ± 1.3 mmol/L
same,Blood glucose level 0,SD rats [2]; oral 1 mg/kg,4.9 ± 0.4 mmol/L
same,AUC0-2 h,SD rats [2]; oral 3 mg/kg,14.9 ± 1.0 mmol·h/L
same,Average hypoglycemic rate % (0-2 h),SD rats [2]; oral 3 mg/kg,51.5%
same,Blood glucose level 15 min,SD rats [2]; oral 3 mg/kg,4.7 ± 0.2 mmol/L
same,Blood glucose level 30 min,SD rats [2]; oral 3 mg/kg,6.9 ± 1.0 mmol/L
same,Blood glucose level 60 min,SD rats [2]; oral 3 mg/kg,8.6 ± 1.0 mmol/L
same,Blood glucose level 90 min,SD rats [2]; oral 3 mg/kg,8.6 ± 1.3 mmol/L
same,Blood glucose level 120 min,SD rats [2]; oral 3 mg/kg,8.3 ± 1.2 mmol/L
same,Blood glucose level 0,SD rats [2]; oral 3 mg/kg,4.0 ± 0.6 mmol/L
same,HbA1c (%),db/db mice [3]; dose 1 mg/kg,5.79 ± 0.32 %
same,HbA1c Decline rate %,db/db mice [3]; dose 1 mg/kg,23.7%
same,HbA1c (%),db/db mice [3]; dose 3 mg/kg,5.32 ± 0.26 %
same,HbA1c Decline rate %,db/db mice [3]; dose 3 mg/kg,29.9%
same,Blood glucose AUC0-2 h,db/db mice [4]; dose 1 mg/kg,7.9 ± 1.7
same,Blood glucose (mmol/L) 0 min,db/db mice [4]; dose 1 mg/kg,10.0 ± 1.0 mmol/L
same,Blood glucose (mmol/L) 15 min,db/db mice [4]; dose 1 mg/kg,19.9 ± 1.0 mmol/L
same,Blood glucose (mmol/L) 30 min,db/db mice [4]; dose 1 mg/kg,20.3 ± 1.1 mmol/L
same,Blood glucose (mmol/L) 60 min,db/db mice [4]; dose 1 mg/kg,11.1 ± 0.5 mmol/L
same,Blood glucose (mmol/L) 90 min,db/db mice [4]; dose 1 mg/kg,10.8 ± 0.4* * mmol/L
same,Blood glucose (mmol/L) 120 min,db/db mice [4]; dose 1 mg/kg,11.8 ± 0.5* * mmol/L
same,AUC0-2 h reduction rate (%),db/db mice [4]; dose 1 mg/kg,48.9%
same,Blood glucose AUC0-2 h,db/db mice [4]; dose 3 mg/kg,9.4 ± 1.7
same,Blood glucose (mmol/L) 0 min,db/db mice [4]; dose 3 mg/kg,8.6 ± 0.4 mmol/L
same,Blood glucose (mmol/L) 15 min,db/db mice [4]; dose 3 mg/kg,19.0 ± 1.2 mmol/L
same,Blood glucose (mmol/L) 30 min,db/db mice [4]; dose 3 mg/kg,20.2 ± 1.8 mmol/L
same,Blood glucose (mmol/L) 60 min,db/db mice [4]; dose 3 mg/kg,12.0 ± 1.4 mmol/L
same,Blood glucose (mmol/L) 90 min,db/db mice [4]; dose 3 mg/kg,9.9 ± 0.8 mmol/L
same,Blood glucose (mmol/L) 120 min,db/db mice [4]; dose 3 mg/kg,9.1 ± 0.6 mmol/L
same,AUC0-2 h reduction rate (%),db/db mice [4]; dose 3 mg/kg,36.1%
same,Insulin AUC,db/db mice [5]; dose 1 mg/kg,27.89 ± 3.63
same,Insulin (ng/ml) 0 min,db/db mice [5]; dose 1 mg/kg,12.92 ± 1.17 ng/mL
same,Insulin (ng/ml) 15 min,db/db mice [5]; dose 1 mg/kg,35.99 ± 5.34 ng/mL
same,Insulin (ng/ml) 30 min,db/db mice [5]; dose 1 mg/kg,29.85 ± 4.97 ng/mL
same,Insulin (ng/ml) 60 min,db/db mice [5]; dose 1 mg/kg,24.33 ± 2.90 ng/mL
same,Insulin (ng/ml) pre,db/db mice [5]; dose 1 mg/kg,8.05 ± 1.10 ng/mL
same,Insulin AUC,db/db mice [5]; dose 3 mg/kg,22.69 ± 2.89
same,Insulin (ng/ml) 0 min,db/db mice [5]; dose 3 mg/kg,8.41 ± 1.07 ng/mL
same,Insulin (ng/ml) 15 min,db/db mice [5]; dose 3 mg/kg,21.29 ± 3.11 ng/mL
same,Insulin (ng/ml) 30 min,db/db mice [5]; dose 3 mg/kg,22.60 ± 3.22 ng/mL
same,Insulin (ng/ml) 60 min,db/db mice [5]; dose 3 mg/kg,31.36 ± 5.44 ng/mL
same,Insulin (ng/ml) pre,db/db mice [5]; dose 3 mg/kg,8.15 ± 0.91 ng/mL
